Assay: Terminal plasma and brain concentration at the end of the zero maze study
Format: in vivo, Sprague-Dawley rats
Details: 5, 15 and 30 mg/kg ip, male SD rats
Protocol: Terminal sampling. At the end of the study, terminal blood was collected from 2 of the vehicle treated rats (>5 mL) and from all methylone HCl treated rats (500 uL) by CP under CO2. Blood samples were placed into Eppendorf tubes on ice containing 22 μL/mL blood (vehicle treated) or 11 μL EDTA (93 mg/mL) (Methylone HCl treated rats) and gently mixed. After no longer than 30 min, blood samples were centrifuged at 10,000 rpm×3 min and plasma samples (>2 mL (vehicle) or 2×100 μL (Methylone HCl treated) placed into Eppendorf tubes (Vehicle) or 96 well plates on dry ice. Immediately after blood sampling, brains were excised, rinsed in saline, blotted, weighed and snap-frozen in liquid N2. All samples were stored at −20
Terminal sampling. At the end of the study, terminal blood was collected from 2 of the vehicle treated rats (>5 mL) and from all S-methylone HCl treated rats (500 uL) by CP under CO2. Blood samples were placed into Eppendorf tubes on ice containing 22 μL/mL blood (vehicle treated) or 11 μL EDTA (93 mg/mL) (S-methylone HCl treated rats) and gently mixed. […]

SMILES: CNC(C)C(=O)c1ccc2c(c1)OCO2 (racemic) [racemic methylone]
- concentration in plasma and brain at the end of the zero maze study: increased in both brain and plasma at the higher doses
